According to PubChem BioAssay (NCI):
“And” between values parts separate entries of the source, which are not always exact repeats. Equal values may be shown once.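 Values below derive from 48-hour exposures of cells grown in 96-well plates, with endpoints linearly interpolated between the two concentrations bracketing the appropriate inhibition level. The concentration for 50% growth inhibition is given as GI50. TGI: total growth inhibition.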 Where a SMILES comes first, the peptide text is derived from it. The star is where a group is joined. Boc = CC(C)(C)OC(=O)*; OBn = c1ccc(CO*)cc1

Assays:
Assay in all cases: NCI anticancer screen, dose series, 48 h
786-0 renal = tested on: 786-0 renal
HOP-62 NSCLC = tested on: HOP-62 NSCLC
MDA-MB-231 breast = tested on: MDA-MB-231 breast
PC-3 prostate = tested on: PC-3 prostate
SK-MEL-2 melanoma = tested on: SK-MEL-2 melanoma
HCC-2998 colon = tested on: HCC-2998 colon
NCI-H522 lung = tested on: NCI-H522 lung
OVCAR-4 ovarian = tested on: OVCAR-4 ovarian

Compound	TGI (786-0 renal) [µM]	TGI (HOP-62 NSCLC)	GI50 (MDA-MB-231 breast)	TGI (MDA-MB-231 breast)	TGI (PC-3 prostate)	TGI (SK-MEL-2 melanoma) [µM]	TGI (HCC-2998 colon) [µM]	TGI (NCI-H522 lung) [µM]	TGI (OVCAR-4 ovarian)	GI50 (HOP-62 NSCLC)	GI50 (OVCAR-4 ovarian)	GI50 (PC-3 prostate)	GI50 (HCC-2998 colon) [µM]	GI50 (NCI-H522 lung) [µM]	GI50 (SK-MEL-2 melanoma) [µM]
O=c1[nH]c(N/N=C\C(O)C(O)C(O)CO)nc2ccccc12 (stereo not drawn)	> 100	> 100 µM	> 100 µM and 47.7 µM	> 100 µM	> 100 µM	> 100									
Cc1cc(=O)oc2cc(O)ccc12	> 100	> 100 µM		> 100 µM	> 100 µM	> 100	> 100	> 100	> 100 µM						
C[C@]12CC[C@@H]3c4ccc(OC(=O)c5ccccc5)cc4CC[C@H]3[C@@H]1CC[C@@H]2Oc1c2ccccc2nc2ccccc12	14.3	15.7 µM		35.2 µM	17.7 µM	> 50	16.9	46	> 50 µM						
Cc1c(-c2ccccc2)c(C#N)c2nnc(C(N)=O)c(N)n12	> 100	> 100 µM		> 100 µM	> 100 µM	> 100	> 100	> 100	> 100 µM						
CCO/C(O)=C(/C(=N)N1CCCC1)C(=O)Nc1cccc(C(F)(F)F)c1	> 100	> 100 µM		> 100 µM	> 100 µM	> 100	> 100	> 100	> 100 µM						
COc1cc2c(/C=C3/C(=O)N(c4ccccc4)c4ccccc43)c(Cl)[nH]c2cc1C	> 44.6	> 23.6 µM		27 µM	> 33.3 µM	8.25	8.37	6.24	6.55 µM						
O=C1C(Br)=C(c2ccccc2)S(=O)c2ccccc21 (stereo not drawn)	7.62	5.68 µM		29.2 µM	21.2 µM	33.8	27.9	3.35	5.86 µM						
CC(C)N(C)C(=O)C12C3C4C1C1C2C3C41C#N (stereo not drawn)	> 100	> 100 µM		> 100 µM	> 100 µM	> 100	> 100	> 100	> 100 µM						
CC(=Nc1ccncc1)C(C)=Nc1ccncc1	> 100	49.4 µM		62.6 µM	38.9 µM	45.1	47.9	35.3	27.4 µM						
CCc1ccc2c(c1)CC1(C2)Cc2cc3c(cc2C1)C(=O)CC3 (stereo not drawn)	60.2	78.5 µM		87.7 µM	64.1 µM	16.8	47.1	57.3	65.4 µM						
[N-]=[N+]=Nc1ccc(CNc2cc(=O)[nH]c(=O)[nH]2)cc1	> 100	> 100 µM		> 100 µM	> 100 µM	> 100	> 100	> 100	> 100 µM						
Cc1ccc(SC(=O)N2C(=S)NC(=NC3CCCCC3)C23CCCCC3)cc1	> 100	> 100 µM		> 100 µM	> 100 µM	> 100	> 100	> 100	> 100 µM						
Cc1c(NC2(C)C(=O)N(/N=C/c3ccccc3)N=C2c2ccccc2)n[nH]c1-c1ccccc1 (stereo not drawn)	> 100	> 100 µM		> 100 µM	> 100 µM	> 100	> 100	> 100	> 100 µM						
CC(=O)N1CCN(C23OC4(N5CCN(C(C)=O)CC5)C5C6CC(C7C6C4C72)C53)CC1 (stereo not drawn)	> 100	> 100 µM		> 100 µM	> 100 µM	> 100	> 100	> 100	> 100 µM						
O=C(NCc1ccc(Cl)cc1)c1cc2sccc2nc1C(F)(F)F	39.8	56.2 µM		> 100 µM	> 100 µM	> 100		95.2	44.8 µM						
O=c1[nH]nc(Cc2ccccc2)n1-n1cnnc1	> 100	> 100 µM		> 100 µM	> 100 µM	> 100	> 100	> 100	> 100 µM						
COc1cc(/C=C2/N=C(c3ccccc3)N(C3=NNC4(C(=O)N3)c3ccccc3-c3ccccc34)NC2=O)ccc1O		56.2 µg/mL	19.3 µg/mL	44.5 µg/mL	79.6 µg/mL				62.1 µg/mL	23.4 µg/mL	27.4 µg/mL	29.5 µg/mL			
Cc1ccc(S(=O)(=O)c2c(O)c3ccccc3n(C)c2=O)cc1	> 100	> 100 µM		> 100 µM	> 100 µM	> 100			> 100 µM						
Nc1cc(N2CCCC2)nc(=O)n1Cc1ccccc1	> 100	> 100 µM		> 100 µM	> 100 µM	> 100		> 100	> 100 µM						
Oc1ccc(CCc2cc(O)cc(O)c2)cc1	> 100	> 100 µM		> 100 µM	> 100 µM	> 100		> 100	> 100 µM						
CCOc1cc(C2CC(c3ccc(NS(=O)(=O)c4cc([N+](=O)[O-])ccc4C)cc3)=NN2)ccc1O (stereo not drawn)	67.8			89.2 µM	> 100 µM	49.9		> 100	71.4 µM						
CC(C)(C)OC(=O)NC(Cc1ccccc1)C(=O)NC(Cc1ccccc1)C(=O)NCC(=O)OCc1ccccc1 (stereo not drawn) (Boc-Phe-Phe-Gly-OBn; configuration not given here)	31.6	91.7 µM			35.8 µM	> 100	29.8	48.8	> 100 µM						
CN(Cc1cnc2nc(N)nc(N)c2n1)c1ccc(C(=O)NC(CCC(=O)NC(P(=O)(O)O)P(=O)(O)O)C(=O)O)cc1 (stereo not drawn)	> 100	> 100 µM		> 100 µM	> 100 µM	> 100		> 100	> 100 µM						
CN(C)CCCOCCn1c2c(c3ccccc31)CCCC2	28.9	28.3 µM		26.6 µM	32.6 µM	26.5	28.4		44.3 µM						
CC(=O)O[C@H]1C(=O)[C@@]2(C)[C@H]([C@H](OC(=O)c3ccccc3)[C@]3(O)C[C@H](OC(=O)[C@H](O)[C@@H](NC(=O)CC(C)(C)C)c4ccccc4)C(C)=C1C3(C)C)C1(OC(C)=O)CO[C@@H]1C[C@@H]2O (stereo partly drawn)	> 10			> 10 µM	> 10 µM	> 10	0.0418		> 10 µM						
C/C(O)=C/c1nc2ccc([N+](=O)[O-])cc2nc1/C=C(/C)O	> 100	> 100 µM		> 100 µM	> 100 µM	96.8		70	> 100 µM						

Compound	TGI (786-0 renal) [µM]	TGI (HOP-62 NSCLC)	GI50 (MDA-MB-231 breast)	TGI (MDA-MB-231 breast)	TGI (PC-3 prostate)	TGI (SK-MEL-2 melanoma) [µM]	TGI (HCC-2998 colon) [µM]	TGI (NCI-H522 lung) [µM]	TGI (OVCAR-4 ovarian)	GI50 (HOP-62 NSCLC)	GI50 (OVCAR-4 ovarian)	GI50 (PC-3 prostate)	GI50 (HCC-2998 colon) [µM]	GI50 (NCI-H522 lung) [µM]	GI50 (SK-MEL-2 melanoma) [µM]
COc1cccc(-c2cc(=O)c3ccc(C)nc3[nH]2)c1	> 100	> 64.6 µM		> 100 µM	> 42 µM	> 100	2.12	> 100	> 100 µM						
c1ccc2c(Cc3nnc4sc(SSc5nn6c(Cc7c[nH]c8ccccc78)nnc6s5)nn34)c[nH]c2c1	47.6	30.2 µM			> 100 µM		30.4	40	> 100 µM						
COc1cc(C2SCC(=O)N2c2ccc(Oc3ccc(Cl)cc3)c(Cl)c2)cc(OC)c1OC (stereo not drawn)	33.9	35.2 µM		40.3 µM	28.9 µM	32.2	> 100	37.1	> 100 µM						
COc1ccc(/C=C2\N=C(c3ccccc3)N(C3Nc4cc5c(cc4S3)NC(N3C(=O)/C(=C/c4ccc(OC)cc4)N=C3c3ccccc3)S5)C2=O)cc1 (stereo not drawn)	> 100	> 100 µM		> 100 µM	> 100 µM	97.5	97.7	45.2	> 100 µM						
Cc1ccc(-c2n[nH]c(=O)[nH]2)cc1[N+](=O)[O-]	> 100	> 100 µM			> 100 µM	> 100	> 100	> 100	> 100 µM						
O=S1(=O)c2ccccc2NC(=S)CC1c1ccccc1 (stereo not drawn)	> 100	> 100 µM		> 100 µM	> 100 µM			> 100	> 100 µM						
COc1cc(S(=O)(=O)Nc2ccc(C3=NNC(c4ccccc4)C3)cc2)ccc1F (stereo not drawn)		80.4 µM			> 100 µM	> 100	> 100	> 100	> 100 µM	22.7 µM	50.6 µM	29.8 µM	54.4	38	> 100
CC(C)(C)OC[C@H](O)CC#N	> 100	> 100 µM		> 100 µM	> 100 µM	> 100	> 100		> 100 µM						
O=C(CNc1ccc(Cl)cc1Cl)NC1C=Cc2ccc(S(=O)(=O)Nc3ccc(Cl)cc3Cl)cc2C1=O (stereo not drawn)	> 100	> 100 µM		> 100 µM	> 100 µM	> 100	> 100	> 100							
COc1ccc(C2C(C#N)=C(S)N(C3OC(CO)C(O)C(O)C3O)C(c3ccccc3)=C2C(C)=O)cc1 (stereo not drawn)	> 100	> 100 µM		> 100 µM	> 100 µM	> 100	> 100	88.9							
O=C(N[C@H]1c2ccsc2/C(=N/O)[C@H]1O)C(F)(F)F		> 100 µM			> 100 µM	> 100	> 100								
Cc1sc2ccccc2[n+]1CCC(=O)O	> 100	> 100 µM		> 100 µM	> 100 µM	> 100		> 100	> 100 µM						
Cn1cnc2c(sc3nc4ccccc4n32)c1=N	> 100	> 100 µM		> 100 µM	> 100 µM	> 100	> 100		> 100 µM						
O=C(NCCCNCCNC(=O)c1cc(-c2ccccc2)nc2ccccc12)c1cc(-c2ccccc2)nc2ccccc12	3.24	3.06 µM		3.52 µM	3.09 µM		3.11	3.14	4.08 µM						
O=C1c2cccc3cccc(c23)C(=O)N1CCCNOCCONCCCN1C(=O)c2cccc3cccc(c23)C1=O	> 100	> 100 µM		> 100 µM	> 100 µM	> 100	> 100		> 100 µM						
COC(=O)C1(Cc2ccccc2)Cc2ccccc2C1	81.9	> 100 µM		> 100 µM	> 100 µM	25.8	98.2		> 100 µM						
CCCCOCn1c(=O)[nH]c(=O)c2cc(Br)ccc21	> 100			> 100 µM	> 100 µM	> 100	> 100		> 100 µM						
COc1ccccc1Nc1nc(NNC(=O)Cc2ccccc2)nc(NNC(=O)c2ccncc2)n1	> 10	> 10 µM		> 10 µM			> 10		> 10 µM						
COc1ccc2c(c1)/c(=C/c1ccc(N(C)C)cc1)c1cc(-c3ccccc3)[n+](C)n12	1.6	2.71 µM		1.08 µM	1.09 µM	1.61			2.83 µM						
CC(C)CNC(=O)Cn1c(-c2ccccc2)cc2ccccc21	> 100	> 100 µM			> 100 µM	> 100	> 100	> 100	> 100 µM						
CC(C)OP(=O)(OC(C)C)C(C(C)C)N(C)/C(F)=N/C(F)(F)F (stereo not drawn)	> 100	> 100 µM		> 100 µM	> 100 µM		> 100	> 100							
Clc1ccc(N=c2oc3ccccc3cc2-c2nc3ccccc3[nH]2)c(Cl)c1		65.1 µM			> 100 µM			> 100	> 100 µM						
C[N+](C)(C)c1ncnc2c1ncn2C1CCCCO1 (stereo not drawn)	> 100	> 100 µM		> 100 µM	> 100 µM	> 100		> 100	> 100 µM						
COc1c2cc(C(C)(C)C)cc1Cc1cccc(c1O)Cc1cc(C(C)(C)C)cc(c1OC)Cc1cccc(c1O)Cc1cc(C(C)(C)C)cc(c1OC)Cc1cccc(c1O)C2	> 100	> 100 µM		> 100 µM	> 100 µM	> 100	> 100	> 100							
c1ccc2c(c1)nc1n2CCSC1	> 100	> 100 µM		> 100 µM	> 100 µM	> 100	> 100		> 100 µM						
